Data as given in PMC7679387, “VZHE-039, a novel antisickling agent that prevents erythrocyte sickling under both hypoxic and anoxic conditions” (Scientific Reports, 2020).
“Also recorded” adds a separate entry of the source.

Legend:
[1] = tested on: SS cells; assay: Antisickling activity under anoxia (100% N2); format: cell-based, human; settings: 2 mM, 100% N2 gas, 30 min
Text: Therefore, another objective in the targeted design of VZHE-039 was to complement its O2-dependent antisickling activity—common to this class of aromatic aldehydes—with an improved O2-independent antisickling activity through proximity-enhanced auxiliary interactions with the αF-helix. Findings from the VZHE-039 crystallographic studies indicate that we achieved the structural objective of enhanced interactions between the methylhydroxy substituent and the αF-helix. We further asked whether these enhanced interactions would translate to an improvement in the O2-independent antisickling activity—as hypothesized. We therefore explored the potential O2-independent activity of VZHE-039, by testing its antisickling properties under complete deoxygenated/anoxic conditions (i.e., 100% N2). […] For internal control purposes, aliquots from samples used for testing for antisickling studies at 2.5% O2 (see above) were also used for testing the antisickling effect of these compounds under 100% N2 gas, therefore, helping elucidate the antisickling effects due to O2-dependent activity of the compounds. Since this experimental design utilized aliquots of the same samples under different gas conditions, it ensured that the assay was free of any potential errors associated with variability in hematocrit and accuracy in drug concentrations.
We conducted two studies to test the antisickling property of VZHE-039 under anoxia to establish the secondary mechanism of action. In the first study, we conducted antisickling studies as described above and also previously reported (2.5% O2)[33], using 2 mM concentrations of VZHE-039, and the controls vanillin, TD-7 and Voxelotor. After 1 h, aliquot samples were fixed with 2% glutaraldehyde without exposure to air. Then the incubation chamber was opened and exposed to air for 15 min to ensure complete re-oxygenation and reversal of the sickled cells to normal round cells. Reversal was confirmed by microscopy. The incubation chamber was then closed, and the assay was repeated under 100% nitrogen gas for 30 min, at which point aliquots were obtained and fixed. Aliquot samples were then subjected to microscopic morphological analysis of bright field images as previously described. Resulting sickled cells (percentages) were compared across samples, and between aliquots of the same samples that had been obtained either under 2.5% oxygen or 100% nitrogen.

[2] = target: T1, CYP2C9 (Homo sapiens, UniProt P11712); assay: In vitro CYP inhibition, pooled human liver microsomes; format: in vitro ADME; settings: substrate Tolbutamide
T1 construct: 0.2–0.5 mg/mL pooled human liver microsomes; from tissue; host or cells: pooled human liver microsomes
Description: (§1) Next, we tested VZHE-039 at concentrations of 0.1 to 100 µM, considered to be biologically relevant unbound plasma concentrations, for possible CYP inhibition using pooled human liver microsomes and isozyme-specific probe substrates (CYP1A2, CYP2C8, CYP2C9, CYP2C19, CYP2D6, CYP3A4, CYP2B6)[55].
(§2) VZHE-039 was studied for its inhibitory potential of seven major drug metabolizing human cytochrome P450 (CYP) enzymes (CYP1A2, CYP2C8, CYP2C9, CYP2C19, CYP2D6, CYP3A4, CYP2B6) using pooled human liver microsomes as published previously[26],[55]. The probe substrates include tacrine (CYP1A2), amodiaquine (CYP2C8), tolbutamide (CYP2C9), mephenytoin (CYP2C19), dextromethorphan (CYP2D6), midazolam (CYP3A4), testosterone (CYP3A4), and bupropion (CYP2B6). […] Assay conditions were optimized for each human cytochrome P450 substrate. The optimized reaction mixtures (200 μL) contained a final concentration of 0.2–0.5 mg/mL pooled human liver microsomes, 2 mM NADPH in 100 mM potassium phosphate, pH 7.4 buffer with 5 mM MgCl2, and VZHE-039 concentration of 0.1 to 100 µM. The assays were performed in duplicate in 96-well plates at 37 °C for 10–60 min. The reaction was terminated with addition of methanol, followed by incubation at 4 °C for 10 min and centrifuged at 4 °C for 10 min. Effect of VZHE-039 on formation of the respective probe substrate metabolites (velnacrine, N‐desethylamodiaquine, 4-hydroxytolbutamide, 4′-hydroxymephenytoin, dextrophan, 1′-hydroxymidazolam, and 6β-hydroxtestosterone and hydroxybupropion) were determined using LC–MS/MS.

[3] = target: T2, CYP3A4 (Homo sapiens, UniProt P08684); assay: as above; format: in vitro ADME
T2 construct: 0.2–0.5 mg/mL pooled human liver microsomes; from tissue; host or cells: pooled human liver microsomes
Description: as §1, §2

[4] = target: T3, CYP2D6 (Homo sapiens, UniProt P10635); assay: as above; format: in vitro ADME; settings: substrate Dextromethorphan
T3 construct: 0.2–0.5 mg/mL pooled human liver microsomes; from tissue; host or cells: pooled human liver microsomes
Description: as §1, §2

[5] = target: T4, CYP2C19 (Homo sapiens, UniProt P33261); assay: as above; format: in vitro ADME; settings: substrate S-Mephentoin
T4 construct: 0.2–0.5 mg/mL pooled human liver microsomes; from tissue; host or cells: pooled human liver microsomes
Description: as §1, §2

[6] = target: T5, CYP2B6 (Homo sapiens, UniProt P20813); assay: as above; format: in vitro ADME; settings: substrate Bupropion
T5 construct: 0.2–0.5 mg/mL pooled human liver microsomes; from tissue; host or cells: pooled human liver microsomes
T5 sequence (P20813 1-491): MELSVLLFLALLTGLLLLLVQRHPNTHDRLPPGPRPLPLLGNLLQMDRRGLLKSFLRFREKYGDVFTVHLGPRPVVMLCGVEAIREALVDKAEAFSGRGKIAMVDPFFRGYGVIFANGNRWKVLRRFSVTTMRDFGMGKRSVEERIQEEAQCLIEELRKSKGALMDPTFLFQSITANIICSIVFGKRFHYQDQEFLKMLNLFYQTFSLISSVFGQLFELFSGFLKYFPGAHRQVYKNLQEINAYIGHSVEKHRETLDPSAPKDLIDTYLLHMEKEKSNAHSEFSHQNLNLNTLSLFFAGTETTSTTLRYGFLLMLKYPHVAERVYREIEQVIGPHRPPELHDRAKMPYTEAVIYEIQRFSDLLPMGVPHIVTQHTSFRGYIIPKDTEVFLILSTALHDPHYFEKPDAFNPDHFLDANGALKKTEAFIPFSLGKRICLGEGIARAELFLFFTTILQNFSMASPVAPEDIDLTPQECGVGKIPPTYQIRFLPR
Description: as §1, §2

[7] = target: T6, CYP2C8 (Homo sapiens, UniProt P10632); assay: as above; format: in vitro ADME; settings: substrate Amodiaquine
T6 construct: 0.2–0.5 mg/mL pooled human liver microsomes; from tissue; host or cells: pooled human liver microsomes
T6 sequence (P10632 1-490): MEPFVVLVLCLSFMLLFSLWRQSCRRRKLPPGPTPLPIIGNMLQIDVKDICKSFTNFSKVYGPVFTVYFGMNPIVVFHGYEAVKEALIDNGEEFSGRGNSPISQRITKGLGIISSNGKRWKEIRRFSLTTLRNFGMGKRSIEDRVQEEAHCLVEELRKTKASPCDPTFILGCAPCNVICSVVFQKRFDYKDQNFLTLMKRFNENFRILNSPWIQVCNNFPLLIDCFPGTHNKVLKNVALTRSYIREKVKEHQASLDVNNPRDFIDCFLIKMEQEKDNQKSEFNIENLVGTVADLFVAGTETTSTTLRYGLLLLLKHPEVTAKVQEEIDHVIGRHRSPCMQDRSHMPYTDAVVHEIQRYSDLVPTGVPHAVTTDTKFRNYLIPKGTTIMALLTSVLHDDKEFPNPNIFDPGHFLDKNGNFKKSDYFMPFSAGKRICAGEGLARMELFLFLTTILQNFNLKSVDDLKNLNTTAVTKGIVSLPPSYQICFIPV
Description: as §1, §2

T2 sequence (P08684 whole entry): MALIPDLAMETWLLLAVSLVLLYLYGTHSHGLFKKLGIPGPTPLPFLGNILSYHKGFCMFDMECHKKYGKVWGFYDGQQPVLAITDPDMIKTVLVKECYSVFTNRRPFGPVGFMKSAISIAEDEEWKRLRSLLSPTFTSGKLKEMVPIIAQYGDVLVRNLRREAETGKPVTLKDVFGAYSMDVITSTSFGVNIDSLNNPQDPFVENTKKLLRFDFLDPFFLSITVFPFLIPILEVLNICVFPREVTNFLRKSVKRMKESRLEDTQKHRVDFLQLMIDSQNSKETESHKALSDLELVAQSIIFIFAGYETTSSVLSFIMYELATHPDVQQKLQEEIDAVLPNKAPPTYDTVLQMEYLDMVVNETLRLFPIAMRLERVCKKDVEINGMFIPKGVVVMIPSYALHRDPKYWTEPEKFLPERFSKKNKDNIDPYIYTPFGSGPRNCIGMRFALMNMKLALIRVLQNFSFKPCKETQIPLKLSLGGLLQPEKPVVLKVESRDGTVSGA
T3 sequence (P10635 whole entry): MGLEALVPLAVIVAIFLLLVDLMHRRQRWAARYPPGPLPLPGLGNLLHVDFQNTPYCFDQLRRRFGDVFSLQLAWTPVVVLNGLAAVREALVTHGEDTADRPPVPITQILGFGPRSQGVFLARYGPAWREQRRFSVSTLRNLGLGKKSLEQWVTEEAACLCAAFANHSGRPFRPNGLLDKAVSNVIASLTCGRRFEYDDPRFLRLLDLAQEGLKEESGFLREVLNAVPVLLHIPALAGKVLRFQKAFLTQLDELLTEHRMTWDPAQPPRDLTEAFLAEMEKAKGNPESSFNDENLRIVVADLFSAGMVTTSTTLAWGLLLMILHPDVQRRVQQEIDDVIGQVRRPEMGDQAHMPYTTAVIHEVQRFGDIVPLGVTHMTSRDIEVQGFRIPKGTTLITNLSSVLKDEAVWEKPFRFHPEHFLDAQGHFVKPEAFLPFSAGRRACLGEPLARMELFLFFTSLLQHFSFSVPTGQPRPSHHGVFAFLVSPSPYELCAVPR
T1 sequence (P11712 whole entry): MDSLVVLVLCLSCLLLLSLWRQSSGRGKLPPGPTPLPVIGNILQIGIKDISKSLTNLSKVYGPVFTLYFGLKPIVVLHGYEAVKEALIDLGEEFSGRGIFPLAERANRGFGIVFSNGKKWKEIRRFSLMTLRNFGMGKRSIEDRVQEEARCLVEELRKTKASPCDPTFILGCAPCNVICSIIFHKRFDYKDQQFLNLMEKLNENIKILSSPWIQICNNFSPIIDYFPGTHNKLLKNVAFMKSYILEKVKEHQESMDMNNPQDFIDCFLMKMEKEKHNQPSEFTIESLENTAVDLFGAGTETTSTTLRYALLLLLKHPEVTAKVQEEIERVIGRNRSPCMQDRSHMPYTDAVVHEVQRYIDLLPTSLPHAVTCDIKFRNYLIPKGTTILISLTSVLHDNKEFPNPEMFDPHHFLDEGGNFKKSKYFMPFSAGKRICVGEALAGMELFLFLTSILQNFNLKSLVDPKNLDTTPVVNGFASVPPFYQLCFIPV
T4 sequence (P33261 whole entry): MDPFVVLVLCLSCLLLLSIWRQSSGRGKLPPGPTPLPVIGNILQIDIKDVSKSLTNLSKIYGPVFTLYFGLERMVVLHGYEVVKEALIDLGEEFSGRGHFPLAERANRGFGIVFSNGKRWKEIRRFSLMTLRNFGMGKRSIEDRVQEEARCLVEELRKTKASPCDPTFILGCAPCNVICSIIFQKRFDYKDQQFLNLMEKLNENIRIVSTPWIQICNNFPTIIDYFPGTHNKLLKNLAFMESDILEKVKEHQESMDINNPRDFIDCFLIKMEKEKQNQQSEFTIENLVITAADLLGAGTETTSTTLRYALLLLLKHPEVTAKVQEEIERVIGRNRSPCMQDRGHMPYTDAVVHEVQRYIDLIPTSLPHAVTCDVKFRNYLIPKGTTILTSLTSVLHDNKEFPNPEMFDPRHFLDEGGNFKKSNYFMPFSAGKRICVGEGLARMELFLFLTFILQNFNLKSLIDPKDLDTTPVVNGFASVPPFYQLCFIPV

O=Cc1c(O)cccc1OCc1cccc(CO)n1 [VZHE-039, 2-((6-(Hydroxymethyl)pyridin-2-yl)methoxy)-6-hydroxybenzaldehyde]
Antisickling effect under anoxia (in words) [1]: inhibited sickling under complete anoxia; also recorded: identical antisickling effects for VZHE-039 under either hypoxia or anoxia
IC50 [2]: > 100 µM
IC50 ([3]; substrate Midazolam): > 100 µM
IC50 ([3]; substrate Testosterone): 95 µM
IC50 [4]: > 100 µM
IC50 [5]: > 100 µM
IC50 [6]: 41.4 µM
IC50 [7]: > 100 µM
